Data published in patent US6933308B2 (Bristol-Myers Squibb Company, priority 2002, dated 2005).
pEC50: −log10 of the molar value.

System: KCNQ channels
Assay: Thallium flux assay for KCNQ channel openers
Format: cell-based
Settings: HEK-293 cells stably transfected with a KCNQ family member; for Min conc. response: minimal active concentration: lowest concentration giving signal >= 4 SD of negative controls; for pEC50: thallium flux, 10 point concentration series
Procedure: Thallium Flux Assay for KCNQ Channel Openers.
The thallium assay is a modification of that published by Weaver and is referenced in its entirety (Weaver, C. D. WO 02/31508, 2002).
Approximately 20,000 cells/well of an HEK-293 cell line stably transfected with one of the members of the KCNQ family were plated into clear-bottom, black-walled, poly-D-lysine coated, 384 well assay plates in 20 μl/well of low chloride plating medium. Low chloride plating medium was composed of the following: sodium gluconate, 109 mM; potassium gluconate, 5.4 mM; hemi-calcium gluconate, 3.6 mM; magnesium sulfate, 0.8 mM; sodium bicarbonate, 26.2 mM; sodium phosphate monobasic, 1.2 mM; glutamine, 2 mM; glucose, 5 mM; 4-(2-hydroxyethyl)-1-piperazineethanesulfonic acid (HEPES) (pH 7.3) 10 mM, MEM vitamin solution (10× concentration of vitamins, Gibco/LifeTechnologies 11120-052) and MEM amino acid solution (1× concentration of amino acids, Gibco/LifeTechnologies 11130-051).
Following overnight incubation in a 5% CO2 incubator at 37° C., the cells in the plates were loaded with 20 μl/well of a dye loading solution containing the commercially available thallium-sensitive fluorescent dye BTC-AM, the acetomethoxy ester of BTC (see U.S. Pat. No. 5,501,980) (2 μM) and pluronic acid F-127 (Molecular Probes P 6867) (0.02% w/v) in chloride free assay buffer. Chloride free assay buffer was composed of the following: sodium gluconate, 140 mM; potassium gluconate, 2.5 mM; hemi-calcium gluconate, 6 mM; hemi-magnesium gluconate, 2 mM; glucose, 5 mM; HEPES (pH 7.3), 10 mM.
Following incubation in the dye loading solution for from 45-90 min at room temperature, the dye loading solution was removed by aspiration and replaced with 40 μl/well of chloride free assay buffer.
Prior to addition to cell plates, test compound and standard compounds were dissolved in DMSO to 3 mM concentration. Compounds were then diluted from the 3 mM stock to 100-fold over the final assay concentration in DMSO. Finally, compounds in DMSO were diluted from 100-fold over the final assay concentration to 5-fold over the final assay concentration in chloride free assay buffer.
Ten μl/well of compounds at 5-fold over the final assay concentration were then added to the cell plates. This represents a 1:5 dilution, yielding the final test concentration. The wells used for test compounds were A1-P20. Wells A21-P22 contained a standard opener and a maximally efficacious concentration (positive control). Wells A23-P24 contained chloride free assay buffer containing 1% DMSO (negative control).
Following addition of test compounds, the plates were loaded onto the Molecular Devices FLIPR. The 488 nm line of the argon laser was used to excite the BTC and the emission filter was a 540(+/−30) nm. Images were collected at 1 Hz. Ten seconds of baseline were collected and then the FLIPR was used to add 13 μl/well of a stimulus buffer composed of 7.5 mM Tl2SO4 in chloride free assay buffer. Images were collected for an additional 60 seconds.
For data analysis, the amplitude of the average of the negative controls was subtracted from all wells. The amplitudes of the test compounds were then compared to the value of four standard deviations of the negative control wells. The lowest concentration of a test compound sufficient to generate a signal amplitude greater than or equal to four standard deviations from the amplitude of the negative controls was defined as the minimal active concentration.
For generating EC50 values, compounds were serially diluted in 1:3 volume increments to produce a 10 point concentration series. EC50 values were calculated by fitting the resulting amplitudes to a single-site logistic equation. EC50 was defined as the concentration of test compound required to yield 50% of the maximal response. Maximal response (Maximal opening) was the largest signal amplitude divided by the negative control amplitude generated by any concentration of a test compound. […]

SMILES: C[C@H](NC(=O)c1sc(C(O)CN2CCN(C)CC2)nc1C(F)(F)F)c1cccc(-c2cccnc2)c1 (stereo partly drawn) [Example 55, 2-[1-hydroxy-2-(4-methyl-1-piperazinyl)ethyl]-N-[(1S)-1-[3-(3-pyridinyl)phenyl]ethyl]-4-(trifluoromethyl)-5-thiazolecarboxamide]
- Min conc. response: 0.3 µM

SMILES: C[C@H](NC(=O)c1sc(CCN2CCCCC2)nc1C(F)(F)F)c1cccc(N2CCOCC2)c1 [Example 25, N-[1-[3-(4-morpholinyl)phenyl]ethyl]-2-[2-(1-piperidinyl)ethyl]-4-(trifluoromethyl)-5-thiazolecarboxamide]
- Min conc. response: 3 µM
- pEC50: 4.70 to 6.00

SMILES: CC(NC(=O)c1sc(C(O)CN2CCOCC2)nc1C(F)(F)F)c1cccc(OC(F)(F)F)c1 (stereo not drawn) [Example 51, 2-[1-hydroxy-2-(4-morpholinyl)ethyl]-N-[1-[3-(trifluoromethoxy)phenyl]ethyl]-4-(trifluoromethyl)-5-thiazolecarboxamide]
- Min conc. response: 0.3 µM

SMILES: CC(NC(=O)c1sc(C(O)CN2CCOCC2)nc1C(F)(F)F)c1cccc(C(F)(F)F)c1 (stereo not drawn) [Example 52, 2-[1-hydroxy-2-(4-morpholinyl)ethyl]-4-(trifluoromethyl)-N-[1-[3-(trifluoromethyl)phenyl]ethyl]-5-thiazolecarboxamide]
- Min conc. response: 10 µM

SMILES: CC(NC(=O)c1sc(CCN2CCCC2)nc1C(F)(F)F)c1cccc(N(C)C)c1 (stereo not drawn) [Example 9, N-[1-[3-(dimethylamino)phenyl]ethyl]-2-[2-(1-pyrrolidinyl)ethyl]-4-(trifluoromethyl)-5-thiazolecarboxamide]
- Min conc. response: 10 µM
- pEC50: 4.70 to 6.00

SMILES: CC(NC(=O)c1sc(CCN(C)Cc2ccco2)nc1C(F)(F)F)c1cccc(-c2cccnc2)c1 (stereo not drawn) [Example 12, 2-[2-[(2-furanylmethyl)methylamino]ethyl]-N-[1-[3-(3-pyridinyl)phenyl]ethyl]-4-(trifluoromethyl)-5-thiazolecarboxamide]
- Min conc. response: 3 µM
- pEC50: > 7.30

SMILES: CCN(CC)CCc1nc(C(F)(F)F)c(C(=O)NC(C)c2cccc(N(C)C)c2)s1 (stereo not drawn) [Example 16, 2-[2-(diethylamino)ethyl]-N-[1-[3-(dimethylamino)phenyl]ethyl]-4-(trifluoromethyl)-5-thiazolecarboxamide]
- Min conc. response: 0.3 µM
- pEC50: 4.70 to 6.00

SMILES: CC(=O)N1CCN(CC(O)c2nc(C(F)(F)F)c(C(=O)NC(C)c3cccc(C(F)(F)F)c3)s2)CC1 (stereo not drawn) [Example 61, 2-[2-(4-acetyl-1-piperazinyl)-1-hydroxyethyl]-4-(trifluoromethyl)-N-[1-[3-(trifluoromethyl)phenyl]ethyl]-5-thiazolecarboxamide]
- Min conc. response: 10 µM

SMILES: COCCN(CCOC)CCc1nc(C(F)(F)F)c(C(=O)N[C@@H](C)c2cccc(-c3cccnc3)c2)s1 [Example 40]
- Min conc. response: 30 µM
- pEC50: 6.00 to 7.30

SMILES: C[C@H](NC(=O)c1sc(CCNC2CCCC2)nc1C(F)(F)F)c1cccc(-c2cccnc2)c1 [Example 37]
- Min conc. response: 30 µM
- pEC50: 4.70 to 6.00

SMILES: CCN(CC)CC(O)c1nc(C(F)(F)F)c(C(=O)N[C@@H](C)c2cccc(N3CCOCC3)c2)s1 (stereo partly drawn) [Example 49, 2-[2-(diethylamino)-1-hydroxyethyl]-N-[(1S)-1-[3-(4-morpholinyl)phenyl]ethyl]-4-(trifluoromethyl)-5-thiazolecarboxamide]
- Min conc. response: 30 µM

SMILES: CC(NC(=O)c1sc(C(O)CN2CCCCC2)nc1C(F)(F)F)c1cccc(C(F)(F)F)c1 (stereo not drawn) [Example 56, 2-[1-hydroxy-2-(1-piperidinyl)ethyl]-4-(trifluoromethyl)-N-[1-[3-(trifluoromethyl)phenyl]ethyl]-5-thiazolecarboxamide]
- Min conc. response: 30 µM

SMILES: C[C@H](NC(=O)c1sc(C(O)CN2CCN(C)CC2)nc1C(F)(F)F)c1cccc(N2CCOCC2)c1 (stereo partly drawn) [Example 54, 2-[1-hydroxy-2-(4-methyl-1-piperazinyl)ethyl]-N-[(1S)-1-[3-(4-morpholinyl)phenyl]ethyl]-4-(trifluoromethyl)-5-thiazolecarboxamide]
- Min conc. response: 0.3 µM

SMILES: CC(NC(=O)c1sc(CCN(C)Cc2ccncc2)nc1C(F)(F)F)c1cccc(C(F)(F)F)c1 (stereo not drawn) [Example 17, 2-[2-[(4-pyridylmethyl)methylamino]ethyl]-4-(trifluoromethyl)-N-[1-[3-(trifluoromethyl)phenyl]ethyl]-5-thiazolecarboxamide]
- Min conc. response: 3 µM
- pEC50: 4.70 to 6.00

SMILES: CC(NC(=O)c1sc(CCN2CCCCC2)nc1C(F)(F)F)c1cccc(N(C)C)c1 (stereo not drawn) [Example 23, N-[1-[3-(dimethylamino)phenyl]ethyl]-2-[2-(1-piperidinyl)ethyl]-4-(trifluoromethyl)-5-thiazolecarboxamide]
- Min conc. response: 0.3 µM
- pEC50: 4.70 to 6.00

SMILES: CC(NC(=O)c1sc(CCN2CCCCC2)nc1C(F)(F)F)c1cccc(OC(F)(F)F)c1 (stereo not drawn) [Example 22, 2-[2-(1-piperidinyl)ethyl]-N-[1-[3-(3-trifluoromethoxy)phenyl]ethyl]-4-(trifluoromethyl)-5-thiazolecarboxamide]
- Min conc. response: 0.3 µM
- pEC50: 6.00 to 7.30

SMILES: CCC(CC)NCCc1nc(C(F)(F)F)c(C(=O)NC(C)c2cccc(OC(F)(F)F)c2)s1 (stereo not drawn) [Example 33, 2-[2-(3-pentylamino)ethyl]-N-[1-[3-(trifluoromethoxy)phenyl]ethyl]-4-(trifluoromethyl)-5-thiazolecarboxamide]
- pEC50: 4.70 to 6.00

SMILES: CC(NC(=O)c1sc(CCN2CCCC2)nc1C(F)(F)F)c1cccc(OC(F)(F)F)c1 (stereo not drawn) [Example 13, 2-[2-(1-pyrrolidinyl)ethyl]-4-(trifluoromethyl)-N-[1-[3-(trifluoromethoxy)phenyl]ethyl]-5-thiazolecarboxamide]
- Min conc. response: 10 µM
- pEC50: 4.70 to 6.00

SMILES: CCN(CC)CC(O)c1nc(C(F)(F)F)c(C(=O)N[C@@H](C)c2cccc(-c3cccnc3)c2)s1 (stereo partly drawn) [Example 50, 2-[2-(diethylamino)-1-hydroxyethyl]-N-[(1S)-1-[3-(3-pyridinyl)phenyl]ethyl]-4-(trifluoromethyl)-5-thiazolecarboxamide]
- Min conc. response: 0.3 µM

SMILES: CC(NC(=O)c1sc(CCN(C)CCN(C)C)nc1C(F)(F)F)c1cccc(C(F)(F)F)c1 (stereo not drawn) [Example 20]
- Min conc. response: 30 µM
- pEC50: 4.70 to 6.00

SMILES: CC(NC(=O)c1sc(CCN2CCCC2)nc1C(F)(F)F)c1cccc(C(F)(F)F)c1 (stereo not drawn) [Example 10, 2-[2-(1-pyrrolidinyl)ethyl]-4-(trifluoromethyl)-N-[1-[3-(trifluoromethyl)phenyl]ethyl]-5-thiazolecarboxamide]
- Min conc. response: 30 µM
- pEC50: 4.70 to 6.00

SMILES: CCCN(CCc1nc(C(F)(F)F)c(C(=O)NC(C)c2cccc(OC(F)(F)F)c2)s1)CC1CC1 (stereo not drawn) [Example 28, 2-[2-[(cyclopropylmethyl)propylamino]ethyl]-N-[1-[3-(trifluoromethoxy)phenyl]ethyl]-4-(trifluoromethyl)-5-thiazolecarboxamide]
- Min conc. response: 0.3 µM
- pEC50: > 7.30

SMILES: CC(NC(=O)c1sc(CCN2CCN(C)CC2)nc1C(F)(F)F)c1cccc(OC(F)(F)F)c1 (stereo not drawn) [Example 21, 2-[2-(4-methyl-1-piperazinyl)ethyl]-N-[1-[3-(3-trifluoromethoxy)phenyl]ethyl]-4-(trifluoromethyl)-5-thiazolecarboxamide]
- Min conc. response: 0.3 µM
- pEC50: 4.70 to 6.00

SMILES: C[C@H](NC(=O)c1sc(CCNCc2ccco2)nc1C(F)(F)F)c1cccc(-c2cccnc2)c1 [Example 35, 2-[2-[(2-furanylmethyl)amino]ethyl]-N-[1-[3-(3-pyridinyl)phenyl]ethyl]-4-(trifluoromethyl)-5-thiazolecarboxamide]
- Min conc. response: 10 µM
- pEC50: 4.70 to 6.00
